Reference: US11066369B2, “N-(pyridin-2-yl)pyridine-sulfonamide derivatives and their use in the treatment of disease” (Novartis AG, priority 2016, dated 2021)

Tests used:
[1] = molecular target: T1, horseradish peroxidase (HRP) tagged delF508-CFTR (Homo sapiens, UniProt P13569, DEL508-508); test: Measurement of delF508-CFTR-HRP surface expression in CFBE41o- cells; assay type: cell-based; conditions: delF508-CFTR-HRP surface expression, CFBE41o- cells; for Emax: read-out: DelF508-CFTR-HRP Amax %; for EC50: read-out: DelF508-CFTR-HRP EC50;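 as to DelF508-CFTR-HRP Amax %: percent efficacy relative to reference corrector lumacaftor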
T1 construct: expressed in transfected cells
How it was run: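 Surface-trafficked delF508-CFTR detected via extracellular HRP tag, read as luminescence from a membrane-impermeant substrate in CFBE41o- cells. Cells pre-induced 48h with 500 ng/mL doxycycline, then exposed 24h at 37° C to a 10-point, 3-fold dilution series from 10 μM (DMSO ≤0.5%). Triplicate dose-responses fitted logistically for EC50 after per-plate normalization; fold change versus reference compound.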

delF508-CFTR = molecular target: T2, delF508-CFTR (Homo sapiens, UniProt P13569, DEL508-508); test: Measurement of delF508-CFTR functional activity in primary human bronchial epithelial cells (HBECs) using Multi-Transepithelial Clamp Circuit (MTECC-24) assay; assay type: cell-based; conditions: primary CF HBECs; for MTECC24 CFHBEC- Amax %: test compound added 24h before assay plus potentiator, relative to reference combination (2 μM corrector + 0.5 μM potentiator); for EC50: test compound added 24h before assay, in the presence of potentiator, mean of at least two replicates, read-out: MTECC24 CFHBEC- EC50
T2 construct: functional activity of the CFTR channel (Chloride ion transport) in patient derived primary human bronchial epithelial cells; host or cells: patient-derived primary human bronchial epithelial cells (delF508-CFTR)
How it was run: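 Compound tested as 10-point, 1-in-3 concentration response (0.1% or 0.2% DMSO), 24 h basolateral pre-incubation, then re-added to both sides. MTECC-24 measured Ieq in ALI-differentiated primary delF508 bronchial cells after amiloride, forskolin activation, potentiator and INH-172 block; data normalized to DMSO baseline, EC50 fitted.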

T1 sequence (P13569 with tags, fused parts or gaps DEL508-508): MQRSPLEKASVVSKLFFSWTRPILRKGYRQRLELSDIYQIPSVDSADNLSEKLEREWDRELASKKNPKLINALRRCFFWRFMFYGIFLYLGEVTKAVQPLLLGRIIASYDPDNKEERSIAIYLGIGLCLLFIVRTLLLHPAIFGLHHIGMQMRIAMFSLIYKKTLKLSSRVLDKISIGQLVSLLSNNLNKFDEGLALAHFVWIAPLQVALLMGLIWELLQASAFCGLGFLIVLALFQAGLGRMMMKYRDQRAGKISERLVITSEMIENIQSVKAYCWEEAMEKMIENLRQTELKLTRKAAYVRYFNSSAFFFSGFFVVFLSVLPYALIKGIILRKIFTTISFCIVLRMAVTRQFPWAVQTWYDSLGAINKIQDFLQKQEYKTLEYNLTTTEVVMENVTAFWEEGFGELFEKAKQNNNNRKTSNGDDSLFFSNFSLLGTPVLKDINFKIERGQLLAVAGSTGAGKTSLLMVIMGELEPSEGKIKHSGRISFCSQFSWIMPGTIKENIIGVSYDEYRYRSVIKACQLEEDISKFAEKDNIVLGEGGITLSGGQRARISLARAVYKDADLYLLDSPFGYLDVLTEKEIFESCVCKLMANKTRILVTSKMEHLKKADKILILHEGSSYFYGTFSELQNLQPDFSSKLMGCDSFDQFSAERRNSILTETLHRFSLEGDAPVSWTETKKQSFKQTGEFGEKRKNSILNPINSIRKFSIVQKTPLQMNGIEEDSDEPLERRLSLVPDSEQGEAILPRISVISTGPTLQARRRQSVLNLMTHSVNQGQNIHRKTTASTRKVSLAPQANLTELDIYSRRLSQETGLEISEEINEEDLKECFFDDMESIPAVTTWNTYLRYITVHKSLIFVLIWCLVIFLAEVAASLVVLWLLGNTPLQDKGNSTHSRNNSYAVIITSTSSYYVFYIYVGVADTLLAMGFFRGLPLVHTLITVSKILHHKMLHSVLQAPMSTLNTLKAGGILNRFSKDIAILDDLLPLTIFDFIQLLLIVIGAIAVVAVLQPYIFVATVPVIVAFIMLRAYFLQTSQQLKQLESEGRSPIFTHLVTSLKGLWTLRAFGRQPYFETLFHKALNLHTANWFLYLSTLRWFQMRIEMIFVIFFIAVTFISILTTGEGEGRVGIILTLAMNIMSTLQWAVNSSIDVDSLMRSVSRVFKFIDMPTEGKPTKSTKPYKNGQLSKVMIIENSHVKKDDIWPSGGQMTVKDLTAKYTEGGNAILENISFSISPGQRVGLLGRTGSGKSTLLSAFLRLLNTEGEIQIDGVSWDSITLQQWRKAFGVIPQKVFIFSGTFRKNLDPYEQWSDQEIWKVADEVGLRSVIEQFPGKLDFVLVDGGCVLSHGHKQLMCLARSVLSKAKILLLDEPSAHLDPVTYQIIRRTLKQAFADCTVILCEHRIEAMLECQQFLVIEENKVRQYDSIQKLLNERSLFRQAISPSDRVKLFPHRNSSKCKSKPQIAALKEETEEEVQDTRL
T2 sequence (P13569 with tags, fused parts or gaps DEL508-508): as above

Row | Compound | Emax [1] [%] | EC50 [1] [nM] | MTECC24 CFHBEC- Amax % (delF508-CFTR) [%] | EC50 (delF508-CFTR) [nM]
1 | Cc1ccc(F)cc1-c1nc(NS(=O)(=O)c2cccc(N3CCC[C@H](C(=O)O)C3)n2)ccc1C(F)(F)F [Example 359, (3S)-1-(6-{[6-(5-fluoro-2-methylphenyl)-5-(trifluoromethyl)pyridin-2-yl]sulfamoyl}pyridin-2-yl)piperidine-3-carboxylic Acid] | 648 | 1960 | 86.7 | 2.04
2 | Cc1c(F)cccc1-c1nc(NS(=O)(=O)c2cccc(N3CCC[C@H](C(=O)O)C3)n2)ccc1C(F)(F)F [Example 360, (3S)-1-(6-{[6-(3-fluoro-2-methylphenyl)-5-(trifluoromethyl)pyridin-2-yl]sulfamoyl}pyridin-2-yl)piperidine-3-carboxylic Acid] | 546 | 2110 | 57.5 | 47.4
3 | Cc1ccc(F)cc1-c1nc(NS(=O)(=O)c2cccc(N3CCCC(C)(C(=O)O)C3)n2)ccc1C(F)(F)F (stereo not shown) [Example 361, 1-(6-{[6-(5-fluoro-2-methylphenyl)-5-(trifluoromethyl)pyridin-2-yl]sulfamoyl}pyridin-2-yl)-3-methylpiperidine-3-carboxylic Acid] |  | 2080 | 51.9 | 11.3
4 | Cc1c(F)cccc1-c1nc(NS(=O)(=O)c2cccc(N3CCCC(C)(C(=O)O)C3)n2)ccc1C(F)(F)F (stereo not shown) [Example 362, 1-(6-{[6-(3-fluoro-2-methylphenyl)-5-(trifluoromethyl)pyridin-2-yl]sulfamoyl}pyridin-2-yl)-3-methylpiperidine-3-carboxylic Acid] |  | 2000 | 77.9 | 0.533
5 | CCc1ccccc1-c1nc(NS(=O)(=O)c2cccc(N3CCC[C@H](C(=O)O)C3)n2)ccc1C(F)(F)F [Example 370, (S)-1-(6-(N-(6-(2-ethylphenyl)-5-(trifluoromethyl)pyridin-2-yl)sulfamoyl)pyridin-2-yl)piperidine-3-carboxylic Acid] | 601 | 1470 | 105.9 | 0.85
6 | CCc1ccccc1-c1nc(NS(=O)(=O)c2ccnc(N3CCC(C)(C(=O)O)CC3)c2)ccc1C(F)(F)F [Example 374, 1-(4-(N-(6-(2-ethylphenyl)-5-(trifluoromethyl)pyridin-2-yl)sulfamoyl)pyridin-2-yl)-4-methylpiperidine-4-carboxylic Acid] | 233 | 2780 | 39.8 | 133

Compounds with a lower EC50 [1], results first:

Row | Emax [1] [%] | EC50 [1] [nM] | MTECC24 CFHBEC- Amax % (delF508-CFTR) [%] | EC50 (delF508-CFTR) [nM] | Compound
7 |  | 1340 | 66.9 | 0.797 | O=C(O)[C@@H]1CCCN(c2cccc(S(=O)(=O)Nc3ccc(C(F)(F)F)c(-c4ccccc4C4CCC4)n3)n2)C1 [Example 366, (R)-1-(6-(N-(6-(2-cyclobutylphenyl)-5-(trifluoromethyl)pyridin-2-yl)sulfamoyl)pyridin-2-yl)piperidine-3-carboxylic Acid]
8 |  | 1210 | 63.5 | 0.682 | CC(C)c1ccccc1-c1nc(NS(=O)(=O)c2cccc(N3CCC[C@@H](C(=O)O)C3)n2)ccc1C(F)(F)F [Example 375, (R)-1-(6-(N-(6-(2-isopropylphenyl)-5-(trifluoromethyl)pyridin-2-yl)sulfamoyl)pyridin-2-yl)piperidine-3-carboxylic Acid]
9 | 962 | 1130 | 254.3 | 1.97 | CCc1ccccc1-c1nc(NS(=O)(=O)c2cccc(N3CCCC(C)(C(=O)O)C3)n2)ccc1C(F)(F)F (stereo not shown) [Example 371, 1-(6-(N-(6-(2-ethylphenyl)-5-(trifluoromethyl)pyridin-2-yl)sulfamoyl)pyridin-2-yl)-3-methylpiperidine-3-carboxylic Acid]
10 | 809 | 928 | 91.2 | 1.4 | O=C(O)[C@H]1CCCN(c2cccc(S(=O)(=O)Nc3ccc(C(F)(F)F)c(-c4ccccc4C4CCC4)n3)n2)C1 [Example 367, (S)-1-(6-(N-(6-(2-cyclobutylphenyl)-5-(trifluoromethyl)pyridin-2-yl)sulfamoyl)pyridin-2-yl)piperidine-3-carboxylic Acid]
11 |  | 671 | 66.2 | 0.152 | CC1(C(=O)O)CCCN(c2cccc(S(=O)(=O)Nc3ccc(C(F)(F)F)c(-c4ccccc4C4CCC4)n3)n2)C1 (stereo not shown) [Example 368, 1-(6-(N-(6-(2-cyclobutylphenyl)-5-(trifluoromethyl)pyridin-2-yl)sulfamoyl)pyridin-2-yl)-3-methylpiperidine-3-carboxylic Acid]
12 | 367 | 273 | 93.1 | 1.17 | C[C@]1(C(=O)O)CCCN(c2cccc(S(=O)(=O)Nc3ccc(C(F)(F)F)c(-c4ccccc4C4CCC4)n3)n2)C1 [Example 373, (S)-1-(6-(N-(6-(2-cyclobutylphenyl)-5-(trifluoromethyl)pyridin-2-yl)sulfamoyl)pyridin-2-yl)-3-methylpiperidine-3-carboxylic Acid]
